Where “and” joins values, the source holds several entries; their conditions need not be identical. Equal entries are not always repeated.
Tests used:
[1] = tested on: Mus musculus; test: Analgesic activity in albino mouse assessed as protection at 10 mg/kg, ip measured after 120 mins by hot plate test relative to indomethacin; assay type: functional; settings: 2 h
[2] = tested on: Rattus norvegicus; test: Anti-inflammatory activity in Wistar rat assessed as inhibition of carrageenan-induced paw edema at 10 mg/kg, ip pretreated for 1 hr followed by carrageenan challenge and measured after 4 hr relative to indomethacin; assay type: functional; settings: time 5 hrs
[3] = tested on: Rattus norvegicus; test: Anti-inflammatory activity in Wistar rat assessed as inhibition of carrageenan-induced paw edema at 10 mg/kg, ip pretreated for 1 hr followed by carrageenan challenge and measured after 2 hr relative to control (reference value: 0.00 +/-0.03 %); assay type: functional; settings: time 3 hrs
[4] = tested on: Rattus norvegicus; test: Anti-inflammatory activity in Wistar rat assessed as inhibition of carrageenan-induced paw edema at 10 mg/kg, ip pretreated for 1 hr followed by carrageenan challenge and measured after 4 hr relative to control (reference value: 0.00 +/-0.4 %); assay type: functional; settings: time 5 hrs
[5] = tested on: Mus musculus; test: Analgesic activity in albino mouse assessed protection against acetic acid-induced abdominal writhing at 10 mg/kg, ip pretreated for 1 hr followed by acetic acid challenge and measured starting 5 mins post acetic acid challenge for 10 mins relative to indomethacin; assay type: functional; settings: time 75 min, 1.25 h
[6] = tested on: Mus musculus; test: Analgesic activity in albino mouse assessed reduction in acetic acid-induced abdominal writhing by measuring writing reflex at 10 mg/kg, ip pretreated for 1 hr followed by acetic acid challenge and measured starting 5 mins post acetic acid challenge for 10 mins (reference value: 42.4 +/- 1.02); assay type: functional; settings: time 75 min, 1.25 h
[7] = Ulcerogenic activity in fasted albino mouse assessed as average severity of ulcers in gastric mucosa at 10 mg/kg, po for 3 days (reference value: 0); assay type: toxicity, organism-based; settings: in vivo, 72 h, time 3 day
[8] = tested on: Rattus norvegicus; test: Anti-inflammatory activity in Wistar rat assessed as inhibition of carrageenan-induced paw edema at 10 mg/kg, ip pretreated for 1 hr followed by carrageenan challenge and measured after 24 hr relative to control (reference value: 0.00 +/-0.3 %); assay type: functional; settings: time 25 hrs
[9] = tested on: Splenocyte; test: Immunomodulatory activity in Swiss albino mouse splenocytes assessed as cell viability at 10 uM by measuring stimulation index incubated for 72 hrs in presence of mitogenic stimulus phytohaemagglutinin by MTT assay (reference value: 1.00 +/- 0.24); assay type: functional
[10] = tested on: Mus musculus; test: Analgesic activity in albino mouse assessed as protection at 10 mg/kg, ip measured after 120 mins by hot plate test (reference value: 0 %); assay type: functional; settings: 2 h
[11] = Toxicity in albino mouse assessed as induction of toxic symptoms at 50 to 100 mg/kg, ip measured after 24 hrs; assay type: organism-based; settings: in vivo, dose 50-100 mg/kg
[12] = Ulcerogenic activity in fasted albino mouse assessed as ulcer index in gastric mucosa at 10 mg/kg, po for 3 days (reference value: 0); assay type: toxicity, organism-based; settings: in vivo, 72 h, time 3 day
[13] = tested on: Splenocyte; test: Immunomodulatory activity in Swiss albino mouse splenocytes assessed as cell viability at 10 uM by measuring inhibition of stimulation index incubated for 72 hrs in presence of mitogenic stimulus phytohaemagglutinin by MTT assay relative to indomethacin; assay type: functional; settings: read-out: Activity
[14] = tested on: Rattus norvegicus; test: Anti-inflammatory activity in Wistar rat assessed as inhibition of carrageenan-induced paw edema at 10 mg/kg, ip pretreated for 1 hr followed by carrageenan challenge and measured after 1 hr relative to control (reference value: 0.00 +/-0.02 %); assay type: functional; settings: time 2 hrs
[15] = tested on: Staphylococcus aureus; test: Antibacterial activity against Staphylococcus aureus ATCC 25923 incubated for 18 hrs by agar dilution method; assay type: functional
[16] = tested on: Streptococcus pyogenes; test: Antibacterial activity against Streptococcus pyogenes ATCC 19615 incubated for 18 hrs by agar dilution method; assay type: functional
[17] = tested on: Peritoneal macrophage; test: Antiinflammatory activity in […] mouse Peritoneal macrophages assessed as reduction in LPS-induced NO production by measuring reduction in stimulation index at 10 uM preincubated for 1 hr followed by LPS stimulation measured after 24 hrs by Griess method (reference value: 27.31 +/- 2.56 uM); assay type: functional; settings: time 25 hrs
[18] = tested on: Candida albicans; test: Antifungal activity against Candida albicans incubated for 18 to 24 hrs by CLSI method; assay type: functional; settings: time 18-24 hrs
[19] = tested on: Rattus norvegicus; test: Antiinflammatory activity in Wistar rat model of carrageenan-induced paw edema assessed as reduction in thickness of paw edema at 10 mg/kg, ip pretreated for 1 hr followed by carrageenan challenge and measured after 24 hrs (reference value: 0.83 +/-0.08 mm); assay type: functional; settings: time 25 hrs
[20] = tested on: Mus musculus; test: Analgesic activity in albino mouse assessed protection against acetic acid-induced abdominal writhing at 10 mg/kg, ip pretreated for 1 hr followed by acetic acid challenge and measured starting 5 mins post acetic acid challenge for 10 mins relative to control (reference value: 0 %); assay type: functional; settings: time 75 min, 1.25 h
[21] = tested on: Salmonella typhimurium; test: Antibacterial activity against Salmonella typhimurium ATCC 19430 incubated for 18 hrs by agar dilution assay; assay type: functional, Salmonella enterica subsp. enterica serovar Typhimurium; settings: Salmonella enterica
[22] = tested on: Peritoneal macrophage; test: Antiinflammatory activity in […] mouse Peritoneal macrophages assessed as inhibition of LPS-induced NO production at 10 uM preincubated for 1 hr followed by LPS stimulation measured after 24 hrs by Griess method relative to control (reference value: 0.0 %); assay type: functional; parameters: scale not given: the % may be the effect or the level left; settings: time 25 hrs
[23] = tested on: Rattus norvegicus; test: Antiinflammatory activity in Wistar rat model of carrageenan-induced paw edema assessed as reduction in thickness of paw edema at 10 mg/kg, ip pretreated for 1 hr followed by carrageenan challenge and measured after 3 hrs (reference value: 1.79 +/-0.07 mm); assay type: functional; settings: time 4 hrs
[24] = tested on: Rattus norvegicus; test: Antiinflammatory activity in Wistar rat model of carrageenan-induced paw edema assessed as reduction in thickness of paw edema at 10 mg/kg, ip pretreated for 1 hr followed by carrageenan challenge and measured after 4 hrs (reference value: 1.40 +/-0.10 mm); assay type: functional; settings: time 5 hrs
[25] = tested on: Mus musculus; test: Analgesic activity in albino mouse assessed as protection at 10 mg/kg, ip measured after 60 mins by hot plate test (reference value: 0 %); assay type: functional; settings: 1 h
[26] = tested on: Mus musculus; test: Analgesic activity in albino mouse assessed as forepaw licking/jumping latency time at 10 mg/kg, ip measured after 30 mins by hot plate test (reference value: 5.02 +/- 0.09 sec); assay type: functional; settings: 0.5 h
[27] = Ulcerogenic activity in fasted albino mouse assessed as average number of ulcers in gastric mucosa at 10 mg/kg, po for 3 days (reference value: 0); assay type: toxicity, organism-based; settings: in vivo, 72 h, time 3 day
[28] = tested on: Mus musculus; test: Analgesic activity in albino mouse assessed as forepaw licking/jumping latency time at 10 mg/kg, ip measured after 60 mins by hot plate test (reference value: 3.42 +/- 0.03 sec); assay type: functional; settings: 1 h
[29] = tested on: Rattus norvegicus; test: Antiinflammatory activity in Wistar rat model of carrageenan-induced paw edema assessed as reduction in thickness of paw edema at 10 mg/kg, ip pretreated for 1 hr followed by carrageenan challenge and measured after 1 hr (reference value: 2.41 +/-0.05 mm); assay type: functional; settings: time 1 hr after carrageenan
[30] = tested on: Pseudomonas aeruginosa; test: Antibacterial activity against Pseudomonas aeruginosa ATCC 27853 incubated for 18 hrs by agar dilution assay; assay type: functional
[31] = tested on: Mus musculus; test: Analgesic activity in albino mouse assessed as protection at 10 mg/kg, ip measured after 30 mins by hot plate test (reference value: 0 %); assay type: functional; settings: 0.5 h
[32] = tested on: Mus musculus; test: Analgesic activity in albino mouse assessed as protection at 10 mg/kg, ip measured after 90 mins by hot plate test (reference value: 0 %); assay type: functional; settings: 1.5 h
[33] = tested on: Rattus norvegicus; test: Anti-inflammatory activity in Wistar rat assessed as inhibition of carrageenan-induced paw edema at 10 mg/kg, ip pretreated for 1 hr followed by carrageenan challenge and measured after 3 hr relative to control (reference value: 0.00 +/-0.1 %); assay type: functional; settings: time 4 hrs
[34] = tested on: Mus musculus; test: Analgesic activity in albino mouse assessed as forepaw licking/jumping latency time at 10 mg/kg, ip measured after 90 mins by hot plate test (reference value: 2.72 +/- 0.01 sec); assay type: functional; settings: 1.5 h
[35] = Ulcerogenic activity in fasted albino mouse assessed as incidence of gastric ulceration at 10 mg/kg, po for 3 days (reference value: 0 %); assay type: toxicity, organism-based; settings: in vivo, 72 h, time 3 day
[36] = tested on: Mus musculus; test: Analgesic activity in albino mouse assessed as forepaw licking/jumping latency time at 10 mg/kg, ip measured after 120 mins by hot plate test (reference value: 2.62 +/- 0.06 sec); assay type: functional; settings: 2 h
[37] = tested on: Rattus norvegicus; test: Antiinflammatory activity in Wistar rat model of carrageenan-induced paw edema assessed as reduction in thickness of paw edema at 10 mg/kg, ip pretreated for 1 hr followed by carrageenan challenge and measured after 2 hrs (reference value: 2.06 +/-0.09 mm); assay type: functional; settings: time 3 hrs

COc1cc(/C=C/C(=O)/C=C(O)/C=C/c2ccc(OC(=O)[C@@H](C)NC(=O)OCc3ccccc3)c(OC)c2)ccc1OC(=O)[C@@H](C)NC(=O)OCc1ccccc1
Activity [1]: 60%
inhibition in vivo at 10 mg/kg [2]: 115%
inhibition in vivo at 10 mg/kg [3]: 89%
inhibition in vivo at 10 mg/kg [4]: 100%
Activity [5]: 107.1%
Activity [6]: 14.4
Activity [7]: 0
inhibition in vivo at 10 mg/kg [8]: 49%
Activity_index [9]: 1.59
Activity [10]: 25.2%
Activity [11]: Non-Toxic
UI [12]: 0
viability at 10 µM [13]: 76%
inhibition in vivo at 10 mg/kg [14]: 82%
MIC [15]: 0.5 µg/mL and 0.642 µM
MIC [16]: 0.125 µg/mL and 0.161 µM
Activity [17]: 17.63 µM
MIC [18]: 0.5 µg/mL and 0.642 µM
Activity [19]: 0.42 mm
Activity [20]: 66%
MIC [21]: 0.5 µg/mL and 0.642 µM
Activity [22]: 35.45%
Activity [23]: 0.09 mm
Activity [24]: 0 mm
Activity [25]: 8.2%
Time [26]: 5.6 s
Activity [27]: 0
Time [28]: 3.7 s
Activity [29]: 0.43 mm
MIC [30]: 1 µg/mL and 1.28 µM
Activity [31]: 11.6%
Activity [32]: 25.7%
inhibition in vivo at 10 mg/kg [33]: 95%
Time [34]: 3.42 s
Activity [35]: 0%
Time [36]: 3.28 s
Activity [37]: 0.23 mm

COc1cc(/C=C/C(=O)/C=C(O)/C=C/c2ccc(OC(=O)[C@@H](CCSC)NC(=O)OCc3ccccc3)c(OC)c2)ccc1OC(=O)[C@@H](CCSC)NC(=O)OCc1ccccc1
Activity [1]: 187.1%
inhibition in vivo at 10 mg/kg [2]: 108%
inhibition in vivo at 10 mg/kg [3]: 80%
inhibition in vivo at 10 mg/kg [4]: 94%
Activity [5]: 29.1%
Activity [6]: 34.8
Activity [7]: 0
inhibition in vivo at 10 mg/kg [8]: 90%
Activity_index [9]: 1.37
Activity [10]: 78.6%
Activity [11]: Non-Toxic
UI [12]: 0
viability at 10 µM [13]: 88.5%
inhibition in vivo at 10 mg/kg [14]: 79%
MIC [15]: 0.125 µg/mL and 0.139 µM
MIC [16]: 0.125 µg/mL and 0.139 µM
Activity [17]: 16.16 µM
MIC [18]: 0.125 µg/mL and 0.139 µM
Activity [19]: 0.08 mm
Activity [20]: 17.9%
MIC [21]: 0.5 µg/mL and 0.556 µM
Activity [22]: 40.84%
Activity [23]: 0.27 mm
Activity [24]: 0.08 mm
Activity [25]: 59.1%
Time [26]: 5.48 s
Activity [27]: 0
Time [28]: 5.44 s
Activity [29]: 0.51 mm
MIC [30]: 1 µg/mL and 1.11 µM
Activity [31]: 9.2%
Activity [32]: 79.4%
inhibition in vivo at 10 mg/kg [33]: 85%
Time [34]: 4.88 s
Activity [35]: 0%
Time [36]: 4.68 s
Activity [37]: 0.41 mm

COc1cc(/C=C/C(=O)/C=C(O)/C=C/c2ccc(OC(=O)C(C)NC(=O)OCc3ccccc3)c(OC)c2)ccc1OC(=O)C(C)NC(=O)OCc1ccccc1 (stereo unspecified)
Activity [1]: 45.5%
inhibition in vivo at 10 mg/kg [2]: 115%
inhibition in vivo at 10 mg/kg [3]: 87%
inhibition in vivo at 10 mg/kg [4]: 100%
Activity [5]: 86.7%
Activity [6]: 19.75
Activity [7]: 0.67
inhibition in vivo at 10 mg/kg [8]: 100%
Activity_index [9]: 1.18
Activity [10]: 19.1%
Activity [11]: Non-Toxic
UI [12]: 4.67
viability at 10 µM [13]: 103%
inhibition in vivo at 10 mg/kg [14]: 72%
MIC [15]: 0.5 µg/mL and 0.642 µM
MIC [16]: 0.125 µg/mL and 0.161 µM
Activity [17]: 14.91 µM
MIC [18]: 0.5 µg/mL and 0.642 µM
Activity [19]: 0 mm
Activity [20]: 53.4%
MIC [21]: 0.5 µg/mL and 0.642 µM
Activity [22]: 45.41%
Activity [23]: 0.05 mm
Activity [24]: 0 mm
Activity [25]: 53.2%
Time [26]: 6.26 s
Activity [27]: 0.67
Time [28]: 5.24 s
Activity [29]: 0.67 mm
MIC [30]: 0.25 µg/mL and 0.321 µM
Activity [31]: 24.7%
Activity [32]: 18.4%
inhibition in vivo at 10 mg/kg [33]: 97%
Time [34]: 3.22 s
Activity [35]: 3.33%
Time [36]: 3.12 s
Activity [37]: 0.26 mm

— ChEMBL document CHEMBL4765295, “Synthesis, pharmacological profile and 2D-QSAR studies of curcumin-amino acid conjugates as potential drug candidates” (Eur J Med Chem, 2020)
